Target: T1, full length p110α/p85α (Homo sapiens, UniProt P42336)
T1 construct: Full-length human p110α was expressed either in a complex with full-length human p85α (for HTS, biochemistry and HDX-MS); 6xHis tag followed by TEV protease site (N); host or cells: Spodoptera frugiperda Sf9, baculovirus
Experiment: HDX-MS
Type: binding
Protocol: Sample preparation: HDX-MS experiments were carried out as described previously. […] In total, three biological replicates, i.e. three separate protein preparations, each with exchange experiments carried out in triplicate were conducted. Data presented in the manuscript is a single biological replicate. Data acquisition and analysis were as follows: Each sample was thawed and injected onto an M-Class Acquity UPLC with HDX Technology (Waters) kept at 0.1°C. Proteins were digested in-line using an Enzymate Pepsin Column (Waters, #186007233) at 15°C for 2 min at 200 μl/min. Peptic peptides were then eluted onto an Acquity UPLC BEH C18 Column (Waters, #186002346) equilibrated in Pepsin-A buffer (0.1% formic acid) and separated using a 5-35% gradient of Pepsin-B buffer (0.1% formic acid, 99% acetonitrile) over 7 min at a flowrate of 40 μl/min. Data were collected on a Waters Cyclic IMS, with an electrospray ionisation source, from 50-2000 m/z. Data were collected in the HDMS^E mode. A single pass of the cyclic IMS was conducted. A “blank” sample of protein dilution buffer with quench was run between samples, and carry-over of peptides was routinely monitored. Five replicates were used to identify non-deuterated peptides. Criteria used to include peptides in the HDX-MS dataset were: minimum intensity 5000, minimum sequence length 5, maximum sequence length 25, a minimum of 3 fragment ions, a minimum of 0.1 products per amino acid, a minimum score of 6.62, a maximum MH+ Error of 10 ppm, identification in at least two datasets with a retention time RSD of less than 10%. Data was analysed using Protein Lynx Global Server (Waters) and DynamX (Waters). All peptides were manually inspected for EX1 kinetics and sufficient quality of the peptide envelope. Data quality, experiment design, and reporting of data meets the criteria as determined by the HDX-MS community. Uptake files were created using Baryonyx. Data are available via ProteomeXchange with identifier PXD037721.

[1] = PK3CA_HUMAN peptide 177-186, time point 1 of 5
[2] = PK3CA_HUMAN peptide 177-186, time point 2 of 5
[3] = PK3CA_HUMAN peptide 177-186, time point 3 of 5
[4] = PK3CA_HUMAN peptide 177-186, time point 4 of 5
[5] = PK3CA_HUMAN peptide 177-186, time point 5 of 5
[6] = PK3CA_HUMAN peptide 186-202, time point 1 of 5
[7] = PK3CA_HUMAN peptide 186-202, time point 2 of 5
[8] = PK3CA_HUMAN peptide 186-202, time point 3 of 5
[9] = PK3CA_HUMAN peptide 186-202, time point 4 of 5
[10] = PK3CA_HUMAN peptide 186-202, time point 5 of 5
[11] = PK3CA_HUMAN peptide 207-219, time point 1 of 5
[12] = PK3CA_HUMAN peptide 207-219, time point 2 of 5
[13] = PK3CA_HUMAN peptide 207-219, time point 3 of 5
[14] = PK3CA_HUMAN peptide 207-219, time point 4 of 5
[15] = PK3CA_HUMAN peptide 207-219, time point 5 of 5
[16] = PK3CA_HUMAN peptide 220-237, time point 1 of 5
[17] = PK3CA_HUMAN peptide 220-237, time point 2 of 5
[18] = PK3CA_HUMAN peptide 220-237, time point 3 of 5
[19] = PK3CA_HUMAN peptide 220-237, time point 4 of 5
[20] = PK3CA_HUMAN peptide 220-237, time point 5 of 5
[21] = PK3CA_HUMAN peptide 224-238, time point 1 of 5
[22] = PK3CA_HUMAN peptide 224-238, time point 2 of 5
[23] = PK3CA_HUMAN peptide 224-238, time point 3 of 5
[24] = PK3CA_HUMAN peptide 224-238, time point 4 of 5
[25] = PK3CA_HUMAN peptide 224-238, time point 5 of 5
[26] = PK3CA_HUMAN peptide 238-250, time point 1 of 5
[27] = PK3CA_HUMAN peptide 238-250, time point 2 of 5
[28] = PK3CA_HUMAN peptide 238-250, time point 3 of 5
[29] = PK3CA_HUMAN peptide 238-250, time point 4 of 5
[30] = PK3CA_HUMAN peptide 238-250, time point 5 of 5
[31] = PK3CA_HUMAN peptide 238-259, time point 1 of 5
[32] = PK3CA_HUMAN peptide 238-259, time point 2 of 5
[33] = PK3CA_HUMAN peptide 238-259, time point 3 of 5
[34] = PK3CA_HUMAN peptide 238-259, time point 4 of 5
[35] = PK3CA_HUMAN peptide 238-259, time point 5 of 5
[36] = PK3CA_HUMAN peptide 241-250, time point 1 of 5
[37] = PK3CA_HUMAN peptide 241-250, time point 2 of 5

T1 sequence (P42336 whole entry): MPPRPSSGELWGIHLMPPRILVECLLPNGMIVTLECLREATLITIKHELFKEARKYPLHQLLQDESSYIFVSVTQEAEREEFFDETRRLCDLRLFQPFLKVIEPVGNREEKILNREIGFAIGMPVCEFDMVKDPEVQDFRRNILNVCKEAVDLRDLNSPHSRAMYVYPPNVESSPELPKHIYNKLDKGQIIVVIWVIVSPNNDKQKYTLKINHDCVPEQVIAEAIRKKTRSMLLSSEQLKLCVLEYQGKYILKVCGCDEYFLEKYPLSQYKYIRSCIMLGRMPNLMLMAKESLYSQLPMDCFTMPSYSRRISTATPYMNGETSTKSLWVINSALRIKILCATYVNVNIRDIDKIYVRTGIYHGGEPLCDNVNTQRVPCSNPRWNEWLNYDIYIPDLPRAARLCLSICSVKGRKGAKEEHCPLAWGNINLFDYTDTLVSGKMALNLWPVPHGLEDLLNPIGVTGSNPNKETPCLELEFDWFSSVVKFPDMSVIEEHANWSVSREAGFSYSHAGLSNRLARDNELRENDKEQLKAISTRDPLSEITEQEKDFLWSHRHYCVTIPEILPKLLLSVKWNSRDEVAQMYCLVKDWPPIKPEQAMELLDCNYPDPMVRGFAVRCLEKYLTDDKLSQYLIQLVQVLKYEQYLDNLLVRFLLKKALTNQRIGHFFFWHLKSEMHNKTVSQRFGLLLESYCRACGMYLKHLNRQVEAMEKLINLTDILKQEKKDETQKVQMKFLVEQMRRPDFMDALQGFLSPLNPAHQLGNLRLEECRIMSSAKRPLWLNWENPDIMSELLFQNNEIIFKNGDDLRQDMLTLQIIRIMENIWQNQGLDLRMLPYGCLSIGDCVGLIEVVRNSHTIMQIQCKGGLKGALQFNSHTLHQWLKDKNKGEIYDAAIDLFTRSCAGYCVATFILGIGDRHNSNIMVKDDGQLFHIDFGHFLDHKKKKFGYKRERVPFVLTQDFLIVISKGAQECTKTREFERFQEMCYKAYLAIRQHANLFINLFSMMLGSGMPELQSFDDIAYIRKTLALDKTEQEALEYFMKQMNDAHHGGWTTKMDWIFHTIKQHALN
T1 sequence (P27986 whole entry partner): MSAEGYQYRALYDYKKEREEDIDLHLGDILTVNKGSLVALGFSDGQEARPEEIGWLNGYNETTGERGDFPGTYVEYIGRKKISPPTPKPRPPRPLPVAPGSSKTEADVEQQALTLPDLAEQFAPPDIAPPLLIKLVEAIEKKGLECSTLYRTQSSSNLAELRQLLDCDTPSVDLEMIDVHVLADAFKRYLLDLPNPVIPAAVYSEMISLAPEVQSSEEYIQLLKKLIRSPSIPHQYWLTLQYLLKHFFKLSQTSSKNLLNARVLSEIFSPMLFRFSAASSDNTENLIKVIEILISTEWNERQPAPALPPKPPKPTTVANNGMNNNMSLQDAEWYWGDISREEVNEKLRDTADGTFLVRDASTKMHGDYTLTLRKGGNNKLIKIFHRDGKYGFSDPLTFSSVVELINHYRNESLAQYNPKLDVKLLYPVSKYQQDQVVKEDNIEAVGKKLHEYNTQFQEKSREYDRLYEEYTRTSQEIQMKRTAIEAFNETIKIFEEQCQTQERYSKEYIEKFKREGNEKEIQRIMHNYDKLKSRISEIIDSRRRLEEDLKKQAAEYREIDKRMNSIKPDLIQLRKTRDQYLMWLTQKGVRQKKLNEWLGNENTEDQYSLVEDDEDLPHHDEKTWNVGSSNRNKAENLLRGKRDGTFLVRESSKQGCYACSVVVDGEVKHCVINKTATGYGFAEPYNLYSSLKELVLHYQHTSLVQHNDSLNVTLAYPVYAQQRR

Structure (SMILES): CCN1CCN(c2ccc(Nc3cc(Nc4cccc5c4N(C(C)=O)CC5)ccn3)cc2)CC1 [Compound 1938]
- changes in HDX-MS protection of PI3Kα (250 μM 1938 or 5 μM BYL719): protection of a region in the C-terminus of the kinase domain consisting of amino acids (AA) 1002-1016 of p110α
- HDX difference (%D) [1]: -1.1%
- HDX difference (Da) [1]: -0.10 Da
- HDX difference (%D) [2]: 0.188%
- HDX difference (Da) [2]: 0.0169 Da
- HDX difference (%D) [3]: 0.0654%
- HDX difference (Da) [3]: 0.00589 Da
- HDX difference (%D) [4]: -0.325%
- HDX difference (Da) [4]: -0.03 Da
- HDX difference (%D) [5]: -0.186%
- HDX difference (Da) [5]: -0.0168 Da
- HDX difference (%D) [6]: -0.741%
- HDX difference (Da) [6]: -0.10 Da
- HDX difference (%D) [7]: 0.268%
- HDX difference (Da) [7]: 0.0349 Da
- HDX difference (%D) [8]: 0.253%
- HDX difference (Da) [8]: 0.0328 Da
- HDX difference (%D) [9]: -0.11%
- HDX difference (Da) [9]: -0.0143 Da
- HDX difference (%D) [10]: -0.0482%
- HDX difference (Da) [10]: -0.00626 Da
- HDX difference (%D) [11]: -0.6%
- HDX difference (Da) [11]: -0.07 Da
- HDX difference (%D) [12]: 0.1%
- HDX difference (Da) [12]: 0.0108 Da
- HDX difference (%D) [13]: 0.0043%
- HDX difference (Da) [13]: 0.000474 Da
- HDX difference (%D) [14]: -0.136%
- HDX difference (Da) [14]: -0.0149 Da
- HDX difference (%D) [15]: -0.4%
- HDX difference (Da) [15]: -0.0435 Da
- HDX difference (%D) [16]: -0.3%
- HDX difference (Da) [16]: -0.0451 Da
- HDX difference (%D) [17]: 0.0936%
- HDX difference (Da) [17]: 0.014 Da
- HDX difference (%D) [18]: 0.319%
- HDX difference (Da) [18]: 0.05 Da
- HDX difference (%D) [19]: -0.0933%
- HDX difference (Da) [19]: -0.014 Da
- HDX difference (%D) [20]: -0.152%
- HDX difference (Da) [20]: -0.0229 Da
- HDX difference (%D) [21]: -0.8%
- HDX difference (Da) [21]: -0.0951 Da
- HDX difference (%D) [22]: 0.43%
- HDX difference (Da) [22]: 0.05 Da
- HDX difference (%D) [23]: 0.056%
- HDX difference (Da) [23]: 0.00672 Da
- HDX difference (%D) [24]: 0.37%
- HDX difference (Da) [24]: 0.0444 Da
- HDX difference (%D) [25]: 0.9%
- HDX difference (Da) [25]: 0.11 Da
- HDX difference (%D) [26]: -0.317%
- HDX difference (Da) [26]: -0.038 Da
- HDX difference (%D) [27]: 0.158%
- HDX difference (Da) [27]: 0.019 Da
- HDX difference (%D) [28]: 0.185%
- HDX difference (Da) [28]: 0.0222 Da
- HDX difference (%D) [29]: -0.357%
- HDX difference (Da) [29]: -0.0429 Da
- HDX difference (%D) [30]: 0.02%
- HDX difference (Da) [30]: 0.00239 Da
- HDX difference (%D) [31]: -0.7%
- HDX difference (Da) [31]: -0.15 Da
- HDX difference (%D) [32]: 0.262%
- HDX difference (Da) [32]: 0.0549 Da
- HDX difference (%D) [33]: 0.265%
- HDX difference (Da) [33]: 0.0556 Da
- HDX difference (%D) [34]: -0.134%
- HDX difference (Da) [34]: -0.0282 Da
- HDX difference (%D) [35]: -0.22%
- HDX difference (Da) [35]: -0.0463 Da
- HDX difference (%D) [36]: -0.43%
- HDX difference (Da) [36]: -0.04 Da
- HDX difference (%D) [37]: 0.2%
- HDX difference (Da) [37]: 0.0181 Da

Source: PMC7614683, “A small molecule PI3Kα activator for cardioprotection and neuroregeneration” (Nature, 2023)
